# From ChEMBL document CHEMBL4020788, “Synthesis, SAR and molecular docking studies of benzo[d]thiazole-hydrazones as potential antibacterial and antifungal agents” (2017)
# Activity calls are given as the source filed them. The rule behind the calls is not given here.
# Columns and labels:
# Assay type in all cases: functional
# Staphylococcus aureus [1] = assay: Antibacterial activity against Staphylococcus aureus at 25 ug/ml after 24 hrs by agar well diffusion method; conditions: read-out: DIZ
# Staphylococcus aureus [2] = assay: Antibacterial activity against Staphylococcus aureus at 50 ug/ml after 24 hrs by agar well diffusion method; conditions: read-out: DIZ
# Staphylococcus aureus [3] = assay: Antibacterial activity against Staphylococcus aureus at 75 ug/ml after 24 hrs by agar well diffusion method; conditions: read-out: DIZ
# Staphylococcus aureus [4] = assay: Antibacterial activity against Staphylococcus aureus at 100 ug/ml after 24 hrs by agar well diffusion method; conditions: read-out: DIZ
# Bacillus subtilis [5] = assay: Antibacterial activity against Bacillus subtilis at 25 ug/ml after 24 hrs by agar well diffusion method; conditions: read-out: DIZ
# Bacillus subtilis [6] = assay: Antibacterial activity against Bacillus subtilis at 50 ug/ml after 24 hrs by agar well diffusion method; conditions: read-out: DIZ
# Bacillus subtilis [7] = assay: Antibacterial activity against Bacillus subtilis at 75 ug/ml after 24 hrs by agar well diffusion method; conditions: read-out: DIZ
# Bacillus subtilis [8] = assay: Antibacterial activity against Bacillus subtilis at 100 ug/ml after 24 hrs by agar well diffusion method; conditions: read-out: DIZ
# Escherichia coli [9] = assay: Antibacterial activity against Escherichia coli at 25 ug/ml after 24 hrs by agar well diffusion method; conditions: for zone of inhibition at 25 µg/mL: read-out: DIZ
# Escherichia coli [10] = assay: Antibacterial activity against Escherichia coli at 50 ug/ml after 24 hrs by agar well diffusion method; conditions: for zone of inhibition at 50 µg/mL: read-out: DIZ
# Escherichia coli [11] = assay: Antibacterial activity against Escherichia coli at 75 ug/ml after 24 hrs by agar well diffusion method; conditions: for zone of inhibition at 75 µg/mL: read-out: DIZ
# Escherichia coli [12] = assay: Antibacterial activity against Escherichia coli at 100 ug/ml after 24 hrs by agar well diffusion method; conditions: for zone of inhibition at 100 µg/mL: read-out: DIZ
# Klebsiella pneumoniae [13] = assay: Antibacterial activity against Klebsiella pneumoniae at 25 ug/ml after 24 hrs by agar well diffusion method; conditions: for zone of inhibition at 25 µg/mL: read-out: DIZ
# Klebsiella pneumoniae [14] = assay: Antibacterial activity against Klebsiella pneumoniae at 50 ug/ml after 24 hrs by agar well diffusion method; conditions: for zone of inhibition at 50 µg/mL: read-out: DIZ
# Klebsiella pneumoniae [15] = assay: Antibacterial activity against Klebsiella pneumoniae at 75 ug/ml after 24 hrs by agar well diffusion method; conditions: for zone of inhibition at 75 µg/mL: read-out: DIZ
# Klebsiella pneumoniae [16] = assay: Antibacterial activity against Klebsiella pneumoniae at 100 ug/ml after 24 hrs by agar well diffusion method; conditions: for zone of inhibition at 100 µg/mL: read-out: DIZ
# Staphylococcus aureus [17] = assay: Antibacterial activity against methicillin resistant Staphylococcus aureus MRSA090 at 25 ug/ml after 24 hrs by agar well diffusion method; conditions: MRSA090, 24 h, read-out: DIZ
# Staphylococcus aureus [18] = assay: Antibacterial activity against methicillin resistant Staphylococcus aureus MRSA090 at 50 ug/ml after 24 hrs by agar well diffusion method; conditions: MRSA090, 24 h, read-out: DIZ
# Staphylococcus aureus [19] = assay: Antibacterial activity against methicillin resistant Staphylococcus aureus MRSA090 at 75 ug/ml after 24 hrs by agar well diffusion method; conditions: MRSA090, 24 h, read-out: DIZ
# Staphylococcus aureus [20] = assay: Antibacterial activity against methicillin resistant Staphylococcus aureus MRSA090 at 100 ug/ml after 24 hrs by agar well diffusion method; conditions: MRSA090, 24 h, read-out: DIZ
# Aspergillus niger [21] = assay: Antifungal activity against Aspergillus niger at 25 ug/ml after 48 hrs by agar well diffusion method; conditions: read-out: DIZ
# Aspergillus niger [22] = assay: Antifungal activity against Aspergillus niger at 50 ug/ml after 48 hrs by agar well diffusion method; conditions: read-out: DIZ
# Aspergillus niger [23] = assay: Antifungal activity against Aspergillus niger at 75 ug/ml after 48 hrs by agar well diffusion method; conditions: read-out: DIZ
# Aspergillus niger [24] = assay: Antifungal activity against Aspergillus niger at 100 ug/ml after 48 hrs by agar well diffusion method; conditions: read-out: DIZ
# Fusarium verticillioides [25] = assay: Antifungal activity against Fusarium moniliforme at 25 ug/ml after 48 hrs by agar well diffusion method; conditions: read-out: DIZ
# Fusarium verticillioides [26] = assay: Antifungal activity against Fusarium moniliforme at 50 ug/ml after 48 hrs by agar well diffusion method; conditions: read-out: DIZ
# Fusarium verticillioides [27] = assay: Antifungal activity against Fusarium moniliforme at 75 ug/ml after 48 hrs by agar well diffusion method; conditions: read-out: DIZ
# Fusarium verticillioides [28] = assay: Antifungal activity against Fusarium moniliforme at 100 ug/ml after 48 hrs by agar well diffusion method; conditions: read-out: DIZ
# Fusarium oxysporum [29] = assay: Antifungal activity against Fusarium oxysporum at 25 ug/ml after 48 hrs by agar well diffusion method; conditions: read-out: DIZ
# Fusarium oxysporum [30] = assay: Antifungal activity against Fusarium oxysporum at 50 ug/ml after 48 hrs by agar well diffusion method; conditions: read-out: DIZ
# Fusarium oxysporum [31] = assay: Antifungal activity against Fusarium oxysporum at 75 ug/ml after 48 hrs by agar well diffusion method; conditions: read-out: DIZ
# Fusarium oxysporum [32] = assay: Antifungal activity against Fusarium oxysporum at 100 ug/ml after 48 hrs by agar well diffusion method; conditions: read-out: DIZ
# Aspergillus niger [33] = assay: Antifungal activity against Aspergillus niger after 48 to 72 hrs by microdilution method
# Fusarium verticillioides [34] = assay: Antifungal activity against Fusarium moniliforme after 48 to 72 hrs by microdilution method
# Fusarium oxysporum [35] = assay: Antifungal activity against Fusarium oxysporum after 48 to 72 hrs by microdilution method
# Klebsiella pneumoniae [36] = assay: Antibacterial activity against Klebsiella pneumoniae incubated for overnight by microdilution method
# Staphylococcus aureus [37] = assay: Antibacterial activity against Staphylococcus aureus incubated for overnight by microdilution method
# Bacillus subtilis [38] = assay: Antibacterial activity against Bacillus subtilis incubated for overnight by microdilution method
# Escherichia coli [39] = assay: Antibacterial activity against Escherichia coli incubated for overnight by microdilution method
Compound,zone of inhibition at 25 µg/mL (Staphylococcus aureus [1]) [mm],zone of inhibition at 50 µg/mL (Staphylococcus aureus [2]) [mm],zone of inhibition at 75 µg/mL (Staphylococcus aureus [3]) [mm],zone of inhibition at 100 µg/mL (Staphylococcus aureus [4]) [mm],zone of inhibition at 25 µg/mL (Bacillus subtilis [5]) [mm],zone of inhibition at 50 µg/mL (Bacillus subtilis [6]) [mm],zone of inhibition at 75 µg/mL (Bacillus subtilis [7]) [mm],zone of inhibition at 100 µg/mL (Bacillus subtilis [8]) [mm],zone of inhibition at 25 µg/mL (Staphylococcus aureus [17]) [mm],zone of inhibition at 50 µg/mL (Staphylococcus aureus [18]) [mm],zone of inhibition at 75 µg/mL (Staphylococcus aureus [19]) [mm],zone of inhibition at 100 µg/mL (Staphylococcus aureus [20]) [mm],zone of inhibition at 25 µg/mL (Aspergillus niger [21]) [mm],zone of inhibition at 50 µg/mL (Aspergillus niger [22]) [mm],zone of inhibition at 75 µg/mL (Aspergillus niger [23]) [mm],zone of inhibition at 100 µg/mL (Aspergillus niger [24]) [mm],zone of inhibition at 25 µg/mL (Fusarium verticillioides [25]) [mm],zone of inhibition at 50 µg/mL (Fusarium verticillioides [26]) [mm],zone of inhibition at 75 µg/mL (Fusarium verticillioides [27]) [mm],zone of inhibition at 100 µg/mL (Fusarium verticillioides [28]) [mm],further results
Cc1cccc2nc(N/N=C/c3ccc([N+](=O)[O-])cc3[N+](=O)[O-])sc12,6,9,13,19,3,7,12,16,8,13,16,18,21,24,29,32,20,24,30,36,zone of inhibition at 25 µg/mL (Escherichia coli [9]): 8 mm; zone of inhibition at 50 µg/mL (Escherichia coli [10]): 13 mm; zone of inhibition at 75 µg/mL (Escherichia coli [11]): 15 mm; zone of inhibition at 100 µg/mL (Escherichia coli [12]): 18 mm; zone of inhibition at 25 µg/mL (Klebsiella pneumoniae [13]): 5 mm; zone of inhibition at 50 µg/mL (Klebsiella pneumoniae [14]): 19 mm; zone of inhibition at 75 µg/mL (Klebsiella pneumoniae [15]): 14 mm; zone of inhibition at 100 µg/mL (Klebsiella pneumoniae [16]): 19 mm; zone of inhibition at 25 µg/mL (Fusarium oxysporum [29]): 13 mm; zone of inhibition at 50 µg/mL (Fusarium oxysporum [30]): 19 mm; zone of inhibition at 75 µg/mL (Fusarium oxysporum [31]): 25 mm; zone of inhibition at 100 µg/mL (Fusarium oxysporum [32]): 28 mm; MIC (Aspergillus niger [33]): 25 µg/mL; MIC (Fusarium verticillioides [34]): 25 µg/mL; MIC (Fusarium oxysporum [35]): 22 µg/mL
Cc1cccc2nc(N/N=C/c3ccc(Cl)cc3Cl)sc12,4,12,16,20,4,9,13,16,5,8,13,16,20,24,29,33,17,21,28,32,diameter of the inhibition zone (DIZ) (Escherichia coli [9]): inactive; diameter of the inhibition zone (DIZ) (Escherichia coli [10]): inactive; diameter of the inhibition zone (DIZ) (Escherichia coli [11]): inactive; diameter of the inhibition zone (DIZ) (Escherichia coli [12]): inactive; zone of inhibition at 25 µg/mL (Klebsiella pneumoniae [13]): 10 mm; zone of inhibition at 50 µg/mL (Klebsiella pneumoniae [14]): 15 mm; zone of inhibition at 75 µg/mL (Klebsiella pneumoniae [15]): 19 mm; zone of inhibition at 100 µg/mL (Klebsiella pneumoniae [16]): 22 mm; zone of inhibition at 25 µg/mL (Fusarium oxysporum [29]): 18 mm; zone of inhibition at 50 µg/mL (Fusarium oxysporum [30]): 22 mm; zone of inhibition at 75 µg/mL (Fusarium oxysporum [31]): 27 mm; zone of inhibition at 100 µg/mL (Fusarium oxysporum [32]): 31 mm; MIC (Aspergillus niger [33]): 25 µg/mL; MIC (Fusarium verticillioides [34]): 28 µg/mL; MIC (Fusarium oxysporum [35]): 26 µg/mL
Cc1cccc2nc(N/N=C/c3ccc(F)cc3F)sc12,5,8,11,15,7,10,13,15,10,13,16,19,17,24,29,30,18,23,28,33,zone of inhibition at 25 µg/mL (Escherichia coli [9]): 4 mm; zone of inhibition at 50 µg/mL (Escherichia coli [10]): 7 mm; zone of inhibition at 75 µg/mL (Escherichia coli [11]): 11 mm; zone of inhibition at 100 µg/mL (Escherichia coli [12]): 14 mm; diameter of the inhibition zone (DIZ) (Klebsiella pneumoniae [13]): inactive; diameter of the inhibition zone (DIZ) (Klebsiella pneumoniae [14]): inactive; diameter of the inhibition zone (DIZ) (Klebsiella pneumoniae [15]): inactive; diameter of the inhibition zone (DIZ) (Klebsiella pneumoniae [16]): inactive; zone of inhibition at 25 µg/mL (Fusarium oxysporum [29]): 10 mm; zone of inhibition at 50 µg/mL (Fusarium oxysporum [30]): 13 mm; zone of inhibition at 75 µg/mL (Fusarium oxysporum [31]): 16 mm; zone of inhibition at 100 µg/mL (Fusarium oxysporum [32]): 20 mm; MIC (Klebsiella pneumoniae [36]): 22 µg/mL; MIC (Staphylococcus aureus [37]): 23 µg/mL; MIC (Bacillus subtilis [38]): 25 µg/mL; MIC (Escherichia coli [39]): 24 µg/mL; MIC (Aspergillus niger [33]): 26 µg/mL; MIC (Fusarium verticillioides [34]): 20 µg/mL; MIC (Fusarium oxysporum [35]): 18 µg/mL
